Test results: article PMC5834809 (Cancer Science, 2018)

How the values were obtained:
[1] = test system: Japanese women with HR+ ABC; conditions: first‐line therapy; cited from earlier work
[2] = test system: Japanese postmenopausal patients with ER+/HER2− advanced breast cancer; test: Exposure to study drugs and dose modifications; format: in vivo, human; conditions: for Median average duration of dose interruption (range): during total cycles
[3] = test system: non‐Japanese postmenopausal women with ER+ and HER2− ABC; conditions: PALOMA‐1; letrozole 2.5 mg QD alone or with palbociclib 125 mg QD 3/1 schedule; cited from earlier work
[4] = test system: postmenopausal women with ER+/HER2− ABC; conditions: PALOMA‐2; letrozole with or without palbociclib (3/1 schedule); cited from earlier work
[5] = Plasma palbociclib steady-state pharmacokinetics; format: in vivo, human
[6] = test system: patients with advanced solid tumors refractory to standard therapy; conditions: single‐agent, Japanese patients, phase I part 1; cited from earlier work

Compound: CC(C)(C#N)c1cc(Cn2cncn2)cc(C(C)(C)C#N)c1 [anastrozole]
- Median time to progression [1]: approximately 12 months

Compound: C=C1C[C@@H]2[C@H](CC[C@]3(C)C(=O)CC[C@@H]23)[C@@]2(C)C=CC(=O)C=C12 [exemestane]
- Median time to progression [1]: approximately 12 months

Compound: N#Cc1ccc(C(c2ccc(C#N)cc2)n2cncn2)cc1 [letrozole]
- Cycle delay ([2]; N = 42): 8 (19.0) n (%)
- Dose interruption ([2]; N = 42): 30 (71.4) n (%)
- Median average duration of dose interruption (range) [2]: 1.0 (1.0‐24.5) d
- Median average duration of cycle delay (range) ([2]; in vivo): 7 (5‐47) d
- Median time to first dose interruption (range) ([2]; in vivo): 107 (5‐404) d
- Median PFS [3]: 10.2 months
- Median PFS [4]: 14.5 months

Compound: CC(=O)c1c(C)c2cnc(Nc3ccc(N4CCNCC4)cn3)nc2n(C2CCCC2)c1=O [palbociclib]
- Tmax ([5]; human, plasma, oral): 4.9 h
- Ctrough, predose concentration on cycle 2/day 15 ([5]; with letrozole, N = 30, geometric mean (geometric %CV)): 86.8 (40) ng/mL
- Ctrough, predose concentration on cycle 1/day 15 ([5]; with letrozole, N = 32, geometric mean (geometric %CV)): 89.4 (44) ng/mL
- Ctrough, predose concentration on day 15, cycles 1 and 2 ([5]; with letrozole, N = 38, geometric mean of within‐patient mean Ctrough (geometric %CV)): 90.1 (42) ng/mL
- Cycle delay ([2]; N = 42): 39 (92.9) n (%)
- Dose interruption ([2]; N = 42): 35 (83.3) n (%)
- ≥1 dose reduction ([2]; N = 42): 25 (59.5) n (%)
- Median average duration of dose interruption (range) [2]: 5.5 (1.0‐8.5) d
- Median average duration of cycle delay (range) ([2]; in vivo): 7 (5‐47) d
- Median time to dose reduction (range), first dose reduction ([2]; in vivo): 64 (29‐232) d
- Median time to dose reduction (range), second dose reduction ([2]; in vivo): 114 (64‐415) d
- Median time to first dose interruption (range) ([2]; in vivo): 15 (5‐124) d
- Patients with a dose reduction to 75 mg ([2]; maximum dose reduction, N = 42): 8 (19.0) n (%)
- Patients with a dose reduction to 100 mg ([2]; maximum dose reduction, N = 42): 17 (40.5) n (%)
- Maximum tolerated dose [6]: 125 mg
